One block for each compound: values may come before it.
Columns and labels:
[1] = target: T1, human 11-β-hydroxysteroid dehydrogenase type-1 enzyme (11-β-HSD1) (Homo sapiens, UniProt P28845); assay: Scintillation proximity assay: human 11-β-HSD1 enzyme assay; format: biochemical; details: Ki calculated from IC50 (Cheng Prushoff)
T1 construct: made in house; host or cells: Pichia pastoris
Text: [1,2(n)-^3H]-cortisone was purchased from Amersham Pharmacia Biotech. Anti-cortisol monoclonal mouse antibody, clone 6D6.7 was obtained from Immunotech and Scintillation proximity assay (SPA) beads coated with monoclonal antimouse antibodies were from Amersham Pharmacia Biotech. NADPH, tetrasodium salt was from Calbiochem and glucose-6-phosphate (G-6-P) was supplied by Sigma. The human 11-β-hydroxysteroid dehydrogenase type-1 enzyme (11-β-HSD1) was expressed in Pichia pastoris. 18-β-glycyrrhetinic acid (GA) was obtained from Sigma. The serial dilutions of the compounds were performed on a Tecan Genesis RSP 150. […]
The multiplication of plates was done on a WallacQuadra. The amount of the product [^3H]-cortisol, bound to the beads was determined in a Packard, Top Count microplate liquid scintillation counter. […]
The plates were covered with plastic film and incubated on a shaker for 30 minutes, at room temperature, before counting. The amount of [^3H]-cortisol, bound to the beads was determined in a microplate liquid scintillation counter.
The calculation of the Ki values for the inhibitors was performed by use of Activity Base. The Ki value is calculated from IC50 and the Km value is calculated using the Cheng Prushoff equation (with reversible inhibition that follows the Michaelis-Menten equation): […] [Cheng, Y. C.; Prushoff, W. H. Biochem. Pharmacol. 1973, 22, 3099–3108]. […]

intraocular pressure = details: normal subjects; Raus et al 2001; cited from earlier work
[2] = test system: hepatic insulin sensitivity; details: healthy human volunteers; Walker et al. 1995; cited from earlier work
Diabetic KKA^y mice = assay: Wound healing of surgical wounds in diabetic KKA^y mice; format: in vivo; details: oral twice daily 200 mg/kg/day for 3.5 days
Procedure: Diabetic KKA^y mice underwent surgery during anesthesia whereby a catheter was inserted in the jugularis vein. Oral treatment twice daily (200 mg/kg/day) with the 11β-HSD1 inhibitor BVT.2733 (disclosed as Example 172A in WO 01/90090), or vehicle started 4–6 days later and continued for 3.5 days.
Advantageous effects on wound healing of the surgical wounds were observed during treatment.

T1 sequence (P28845 whole entry): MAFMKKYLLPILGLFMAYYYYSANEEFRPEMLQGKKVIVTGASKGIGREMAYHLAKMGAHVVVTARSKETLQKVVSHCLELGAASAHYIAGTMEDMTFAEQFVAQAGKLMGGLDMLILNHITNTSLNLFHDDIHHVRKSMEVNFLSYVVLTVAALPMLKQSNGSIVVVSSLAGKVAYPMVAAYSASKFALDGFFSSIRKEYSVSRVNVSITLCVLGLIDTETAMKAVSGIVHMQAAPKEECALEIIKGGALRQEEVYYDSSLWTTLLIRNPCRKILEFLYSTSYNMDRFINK

- Ki [1]: 321 nM
Compound: Cc1ccc([N+](=O)[O-])cc1S(=O)(=O)Nc1nc(C(C)C)ns1 [Example 80, N-(3-isopropyl-1,2,4-thiadiazol-5-yl)-2-methyl-5-nitrobenzenesulfonamide]

- Ki [1]: 219 nM
Compound: CC(C)c1nnc(NS(=O)(=O)c2ccc(Oc3ccccc3)cc2)s1 [Example 244, N-(5-isopropyl-1,3,4-thiadiazol-2-yl)-4-phenoxybenzenesulfonamide]

Compound: CC1(C)[C@@H](OC(=O)CCC(=O)O)CC[C@]2(C)[C@H]3C(=O)C=C4[C@@H]5C[C@@](C)(C(=O)O)CC[C@]5(C)CC[C@@]4(C)[C@]3(C)CC[C@@H]12 [carbenoxolone]
- reduction of intraocular pressure (intraocular pressure): 20%
- hepatic insulin sensitivity [2]: improved

Compound: BVT.2733
- animals showing complications during treatment period (Diabetic KKA^y mice; jugular catheter surgery, vehicle 58%): 24%
- effects on wound healing of the surgical wounds (Diabetic KKA^y mice; compared to control mice): less pus in the wound, as well as better wound strength
